Reference: patent publication US20090042783A1, “APO E ANALOGS AND METHODS FOR THEIR USE” (priority 2004, published 2009)
pIC50: −log10 of the molar value. Non-standard residues stand in square brackets, D forms with d. Residues, ends and D or L forms follow the SMILES beside them. Aib = CC(C)(N)C(=O)O

How the values were obtained:
RAW 264.7 macrophages [1] = assay: NO production and iNOS mRNA in C. rodentium-stimulated macrophages; type: cell-based, mouse; details: C. rodentium lysates; COG1410 2 μM, COG4502 0.1-5 μM
From the text: RAW 264.7 cells were stimulated with French-pressed lysates of C. rodentium at a multiplicity of infection of 100. […] B, RT-PCR for iNOS.
We used bacterial lysates to more closely mimic the bacterial products to which lamina propria macrophages are likely to be exposed.

[2] = test system: mice with traumatic brain injury; assay: Closed head injury model of traumatic brain injury (rotorod, Morris Water Maze)
Experimental: C57Bl/6J male mice (The Jackson Laboratory, ME), 12-16 weeks of age and weighing 24-32 g, are used for all experiments. Anesthesia is first induced with isoflurane in 30% O2/balance N2. The trachea is intubated and the lungs mechanically ventilated with 1.6% isoflurane in 30% O2/balance N2. Temperature is monitored with a rectal probe and maintained at 36.5° C. with a heat lamp. The right internal jugular vein is cannulated with silicone catheter. […] Intubated animals are then placed prone on a molded acrylic cast (FIG. 6A). […] The scalp is incised and the skull exposed. A concave 3 mm metallic disc is secured to the skull surface (with the concave surface in juxtaposition to the skull) by an adhesive. […] The disc is placed directly midline just caudal to bregma (FIG. 6B). […] The mice are positioned in a stereotactic frame. Although the stereotactactic frame helps to stabilize the animal and exactly calibrate the vertical displacement on impact (3 mm), ear bars are not used due to a much higher rate of skull fracture (or brainstem injury if the head rotates around the axis of the ear bars during impact). The piston is discharged at 6.8±0.2 m/s so as to impact the skull in the acrylic mold to move a maximum of approximately 3 mm (FIG. 6C). Inspired isoflurane is decreased to 0.7% immediately after impact. The scalp was infiltrated with lidocaine and closed with suture. Ophthalmic ointment was applied to the eyes for protection. The incidence of skull fracture is low (approximately 10%), as the metal disk helps to diffuse the impact, and the absence of ear bar fixation allows for displacement of the entire head. Mice were excluded if a depressed skull fracture was observed (incidence of approximately 10%). The animals are allowed to recover spontaneous ventilation then extubated. […] In these mice, arterial blood pressure, blood gas and glucose measurement at baseline, immediately after injury, and 15 minutes after injury are monitored during the recovery period.
Briefly, baseline performance on rotorod is established before the mice are intubated, the skin over the scalp reflected and a controlled cortical impact from a pneumatic impactor given on the midline. The skin is closed with surgical clips and the animals are constantly monitored until awake from anesthesia and then hourly for the next 4 hours. […] Performance on rotorod is tested at 24 hours post impaction and then every day for 5 days and data is presented as described. Groups of 12 mice are used for each compound at 0.5×MTD. […] Novel peptides and non-peptide analogs are also given by tail vein injection.
Daily Rotarod (RR) testing was used to assess short term motor and cerebellar deficit following head injury (Hamm et al., 1994). Mice were held by their tails and placed on the RR facing the wall by using gentle swinging motion while running in a constant speed mode.

RAW 264.7 macrophages [3] = test system: RAW 264.7 macrophages
mice = assay: Maximum tolerated dose, tail vein injection; details: mouse, in vivo
Experimental: (§1) Candidate compounds are then be screened in our closed head injury model of traumatic brain injury by intravenous dosing at 30 minutes post injury. Novel compounds are initially tested at one half their maximum tolerated dose (0.5×MTD). The maximum tolerated dose (MTD) is the dose of peptide given in a tail vein injection that results in no death of mice. Death is defined as a complete lack of breathing and complete unresponsiveness to external stimuli such as tail pinch and/or toe pinch for a period of 10 or more minutes. Animals are given an initial dose of 1 mg/kg of peptide analog or non-peptide mimetic and observed continuously for 15 minutes and then at 15 minute intervals for 2 hours and then at 1 hour intervals for 4 hours more. Animals are also observed at 24 hours post injection.
(§2) The maximum tolerated dose is the maximum dose at which no animals die at any of these observation times. As an example of this procedure, the MTD is determined empirically by initially dosing groups of 3 mice at 1 mg/kg. If this dose is tolerated, then another group of 3 mice is dosed at 3 mg/kg. If this dose is tolerated, then another group of 3 mice is dosed at 9 mg/kg, etc. If, for example, 9 mg/kg is not tolerated because 1 or more animal died, then doses in-between 3 mg/kg and 9 mg/kg are investigated until the MTD is found. Once the MTD is empirically determined, it is confirmed in another group of 7 mice for a total of 10 mice being tested at the MTD and all of which must not die to confirm that this is the MTD.

[4] = Maximum tolerated dose, tail vein injection; details: mouse, in vivo, intravenous, highest dose with death of no mice in 24 hours, tail vein
Experimental: as §1, §2

in vivo = details: male, C57B1/6, mouse, 0.4 mg/kg
[5] = mouse, in vivo
From the text: We have employed a similar LC/MS procedure to identify fragments of COG1410 that may arise by degradation processes.

Compound: CC(=O)N[C@@H](C)C(=O)N[C@@H](CO)C(=O)NC(C)(C)C(=O)N[C@@H](CC(C)C)C(=O)N[C@@H](CCCNC(=N)N)C(=O)N[C@@H](CCCCN)C(=O)N[C@@H](CC(C)C)C(=O)NC(C)(C)C(=O)N[C@@H](CCCCN)C(=O)N[C@@H](CCCNC(=N)N)C(=O)N[C@@H](CC(C)C)C(=O)N[C@@H](CC(C)C)C(N)=O [COG1410, Ac-AS-Aib-LRKL-Aib-KRLL-NH2] (Ac-AS[Aib]LRKL[Aib]KRLL-NH2)
- NO production (nitrite levels) in macrophage supernatants (RAW 264.7 macrophages [1]): inhibition of NO production
- Neuroprotection (rotorod) when administered 120 minutes after TBI ([2]; 120 minutes after TBI, vs saline): neuroprotective
- Minimum effective dose (MED) ([2]; lowest dose with statistically significant improvement vs vehicle, preliminary): 0.3 mg/kg
- Gain in therapeutic window as compared to COG133 ([2]; mouse, in vivo): 4 fold
- Concentration at which cell toxicity was noted (RAW 264.7 macrophages [3]): ≥ 5 µM
- Biologic Activity relative to COG133 (BV2 microglial cells; Table 2, preliminary data): >5x x COG133
- pIC50 (BV2 microglial cells; read-out: IC50, inhibition of nitric oxide release, BV2 cells, LPS for 40 hours, approximate): ~5.70
- Therapeutic Index (ratio of the MTD to the MED) (mice): 26
- MTD at 24 h [4]: 8 mg/kg
- half-life (in vivo): 2 min
- Major metabolite in plasma [5]: acetyl-AS-Aib-LRKL-Aib-KR
